Laboratory results published in US9724537B2, “Abnormal electrical conduction blocking apparatus using photodynamic therapy (PDT)” (Keio University, priority 2006, dated 2017).

Tests used:
[1] = rat, cited from earlier work
[2] = Pharmacokinetics of talaporfin sodium, rat plasma; format: in vivo; conditions: intravenous
Procedure: FIG. 45 is a graph showing changes in plasma concentrations after intravenous injection to rats at various doses (10, 5, 2, 1 mg/kg) and to humans at 1 mg/kg over time, using data in pharmacology studies and clinical studies with talaporfin sodium. In rats, the average of the mean plasma concentrations measured at 47 min, which was the average of the half-lives from 2 to 60 min after intravenous injection at a dose of 10 mg/kg, and at 5 min was used as true values, and concentration changes were calculated until 60 min. Furthermore, a straight line was drawn between the value at 60 min and the value at 120 min calculated using the average of the plasma concentrations measured at 9.6 h, which was the average of the half-lives from 2 to 24 h after intravenous injection, and at 24 h as a true value. Changes at each dose were calculated assuming that the plasma concentration changed in proportion to the dose.

[3] = system: isolated right ventricular free wall of a Wistar rat; test: PDT electrical conduction block experiment in ex vivo system
Procedure: As materials, spread samples of an isolated right ventricular free wall of a Wistar rat (male, 8 to 10 weeks old) were used. The length (L) and the thickness (d) of sample photoradiation lines in each experiment are as follows.
Experiment 1: L=0.9 cm, d=1.5 mm
Experiment 2: L=0.76 cm, d=1.5 mm
Experiment 3: L=1.2 cm, d=1.4 mm
Experiment 4: L=0.88 cm, d=1.4 mm
Tyrode's solution (95% O2 and 5% CO2 gases were passed through, and the temperature was maintained at 37° C. in a constant-temperature apparatus) was used as a perfusion fluid.
Immediately after isolation, the heart was dipped in the perfusion fluid heated at about 37° C., and a right ventricular tissue was ablated. The ablated tissue was fixed on the silicon floor of a tissue bath with a 0.2 mmφ tungsten wire, and then the perfusion fluid was allowed to flow.
Immediately after rats were allowed to inhale vaporized diethyl ether, heparin and Nembutal (0.2 and 0.5 ml, respectively) were administered intraperitoneally, and approx. 0.5 ml of talaporfin sodium (Laserphyrin [registered trade name] Meiji Seika Kaisha, Ltd.) dissolved in physiological saline was intravenously injected from the vena cava of the rat lower extremity. After the heart was isolated, a right ventricular tissue was ablated in a normal Tyrode's solution and fixed in a tissue bath. Then, Tyrode's solutions in which talaporfin sodium was dissolved at various concentrations (see Reference Example 1 described later, set assuming a half of the plasma concentration at each dose and interval as blood concentration) (these are referred to as photosensitizer solutions), and loaded by circulatory perfusion for a period equal to time required from the heart isolation to bath fixation (approx. 10 min), and laser irradiation was performed with surface perfusion. The photosensitizer dose (D), the interval to heart isolation, and the concentration of the photosensitizer solution (c) in each experimental example were as follows.
Experiment 1: D=5 mg/kg; interval, 30 min; c=30 μg/ml
Experiment 2: D=5 mg/kg; interval, 60 min; c=20 μg/ml
Experiment 3: D=2 mg/kg; interval, 30 min; c=12 μg/ml
Experiment 4: D=2 mg/kg; interval, 60 min; c=8 μg/ml
A continuous semiconductor laser beam (SONY, peak wavelength, 670 band) was transmitted with a quartz fiber (core diameter, 800 μm), and the fiber was used virtually in contact with the tissue surface with an output at the end thereof being 5 mW. Laser irradiation was performed while reciprocating the fiber horizontally across the tissue over approx. 1 cm on the tissue surface. The laser irradiation time (T) and the total dose of laser irradiation (It) in each experimental example were as follows.
Experiment 1: T=60 s, It=4.2 J/cm^2
Experiment 2: T=80 s, It=6.6 J/cm^2
Experiment 3: T=267 s, It=14 J/cm^2
Experiment 4: T=500 s, It=36 J/cm^2
0.8-mA electrical stimulus was applied from a bipolar electrode (Unique Medical Co., Ltd., obtained by twining 0.2-mmφ silver chloride wires) with a stimulator and an isolator (Nihon Kohden Corporation) every 300 ms, and two bipolar electrodes for measuring a potential (Unique Medical Co., Ltd., 0.25 mmφ stainless) were placed on the tissue surface to measure a extracellular potential (FIG. 24). […] A signal was led to a bioamplifier (Physio-Tech Co., Ltd., DAM50) and recorded and analyzed using a biosignal recording/analyzing apparatus (AD Instrumens) (FIG. 25). FIG. 25 is a schematic view showing an ex vivo experimental system.
FIGS. 26 to 29 show extracellular potentials before and after PDT a led potential in each experiment. In FIGS. 26 to 29, the upper line (red line) and the lower line (blue line) in one graph represent potentials in X and Y in FIG. 24, respectively. The vertical axis represents voltage.

in vivo = conditions: rat, half-life of photosensitizer concentration in the heart
Procedure: FIG. 46 is a graph showing changes in the photosensitizer concentration in the rat heart at doses of 5 and 2 mg/kg together with changes in plasma concentration in rats and humans.

[4] = Experiment 1: 5 mg/kg i.v., interval 30 min, 30 μg/ml, 4.2 J/cm^2
[5] = Experiment 2: 5 mg/kg i.v., interval 60 min, 20 μg/ml, 6.6 J/cm^2
[6] = Experiment 3: 2 mg/kg i.v., interval 30 min, 12 μg/ml, 14 J/cm^2
[7] = Experiment 4: 2 mg/kg i.v., interval 60 min, 8 μg/ml, 36 J/cm^2

C=Cc1c(C)c2cc3nc(c(CC(=O)N[C@@H](CC(=O)O)C(=O)O)c4[nH]c(cc5nc(cc1[nH]2)C(C)=C5CC)c(C)c4C(=O)O)[C@@H](CCC(=O)O)[C@@H]3C [talaporfin sodium, mono-L-aspartyl chlorine 6]
average of the half-lives in plasma from 2 to 24 h ([1]; after intravenous injection): 9.6 h
average of the half-lives in plasma from 2 to 60 min ([1]; intravenous injection 10 mg/kg): 47 min
concentration at 30 min ([2]; conditions of Experiment 3 (2 mg/kg, interval 30 min)): 24 µg/mL
concentration at 60 min ([2]; conditions of Experiment 4 (2 mg/kg, interval 60 min)): 16 µg/mL
electrical conduction block after PDT [3, 4]: an electrical conduction block occurred after PDT
time the conduction block state was maintained [3, 4]: 3 h
electrical conduction block after PDT [3, 5]: an electrical conduction block occurred after PDT
time the conduction block state was maintained [3, 5]: 2 h
electrical conduction block after PDT [3, 6]: an electrical conduction block occurred after PDT
time the conduction block state was maintained [3, 6]: 3 h
electrical conduction block after PDT [3, 7]: an electrical conduction block occurred after PDT
time the conduction block state was maintained [3, 7]: 3 h
half-life (in vivo; 0 to 60 min): 1.08 h
half-life (in vivo; later phase): 13.3 h
